Assay results reported in ChEMBL document CHEMBL1133993, “Chemical synthesis of UDP-beta-L-arabinofuranose and its turnover to UDP-beta-L-arabinopyranose by UDP-galactopyranose mutase” (Bioorg Med Chem Lett, 2001).

Test system: Escherichia coli
Assay: Kinetic constant using the compound as substrate was determined against Escherichia coli UDP-galactopyranose mutase

SMILES	Km	k cat
O=c1ccn(C2O[C@H](COP(=O)(O)OP(=O)(O)OC3O[C@H]([C@H](O)CO)[C@H](O)[C@H]3O)[C@@H](O)[C@H]2O)c(=O)[nH]1 (some centres undefined)	22 µM	27 s⁻¹
O=c1ccn([C@@H]2O[C@H](COP(=O)(O)OP(=O)(O)O[C@H]3O[C@@H](CO)[C@H](O)[C@H]3O)[C@@H](O)[C@H]2O)c(=O)[nH]1	600 µM	12 s⁻¹
